The results in this text go back to patent US9145392B2, “Imidazole amines as modulators of kinase activity” (Merck Patent GmbH, priority 2011, dated 2015).

The target in one assay is P70S6K (T412E mutant) (Homo sapiens (Human), UniProt P23443, T412E). The assay is described as follows: P70S6K enzyme assay. Type of assay: biochemical. Particulars: read-out: IC50 p70S6K. How it is done: P70S6K inhibitor compounds are diluted and plated in 96 well plates. […] The reaction is incubated for 90 min at 25° C., before the addition of 10 mM EDTA to stop the reaction. The proportion of substrate and product (phosphorylated) peptide is analysed on a Caliper Life Sciences Lab Chip 3000, using a pressure of −1.4 psi, and upstream and downstream voltages of −3000 and −700 respectively. Product peaks are resolved before substrate peaks on the resulting chromatograms.
Sequence of P70S6K (T412E mutant) (P23443 whole entry T412E): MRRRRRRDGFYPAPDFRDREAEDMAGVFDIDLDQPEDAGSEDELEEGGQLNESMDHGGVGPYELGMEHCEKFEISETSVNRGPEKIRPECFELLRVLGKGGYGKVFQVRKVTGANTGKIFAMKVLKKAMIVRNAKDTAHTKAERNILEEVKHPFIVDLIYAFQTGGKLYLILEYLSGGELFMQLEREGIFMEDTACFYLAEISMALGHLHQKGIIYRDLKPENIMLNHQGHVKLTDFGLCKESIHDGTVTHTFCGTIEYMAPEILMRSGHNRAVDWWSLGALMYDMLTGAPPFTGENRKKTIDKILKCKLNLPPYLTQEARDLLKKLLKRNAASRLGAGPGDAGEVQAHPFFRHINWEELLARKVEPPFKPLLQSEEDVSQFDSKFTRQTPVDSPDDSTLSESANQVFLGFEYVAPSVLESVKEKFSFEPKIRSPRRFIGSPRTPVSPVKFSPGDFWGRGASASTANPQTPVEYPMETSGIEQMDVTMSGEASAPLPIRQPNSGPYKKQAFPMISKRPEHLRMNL

In a further assay the target is His-AKT (Full Length) (Homo sapiens (Human), UniProt P31749). As to the kind of experiment: AKT enzyme assay. The assay is classed as biochemical. As to conditions: read-out: IC50 AKT. The protocol:
A TTP Mosquito liquid handling instrument is used to place 125n1 of the appropriate concentration of inhibitor in 100% DMSO (for a dose response curve calculation) into each well of a 384-well plate.
The reaction is incubated for 90 min at 25 C, and then stopped by the addition of 70 μl of Stop buffer (100 mM HEPES pH 7.5, 0.015% Brij-35, 10 mM EDTA (Sigma, E7889)).
The plate is read on a Caliper LC 3000 in an Off-Chip mobility shift assay format, using the following parameters for a 12-sipper chip: screening pressure −2.3 psi, upstream voltage −500, and downstream voltage −3000. These conditions cause unphosphorylated substrate and phosphorylated product peptide to resolve as separate peaks allowing direct measurement of percentage of conversion of substrate to product. The percent conversion can be plotted against concentration of inhibitor to produce a sigmoidal dose response curve, from which an IC50 can be calculated.

Sequence of His-AKT (Full Length) (P31749 whole entry): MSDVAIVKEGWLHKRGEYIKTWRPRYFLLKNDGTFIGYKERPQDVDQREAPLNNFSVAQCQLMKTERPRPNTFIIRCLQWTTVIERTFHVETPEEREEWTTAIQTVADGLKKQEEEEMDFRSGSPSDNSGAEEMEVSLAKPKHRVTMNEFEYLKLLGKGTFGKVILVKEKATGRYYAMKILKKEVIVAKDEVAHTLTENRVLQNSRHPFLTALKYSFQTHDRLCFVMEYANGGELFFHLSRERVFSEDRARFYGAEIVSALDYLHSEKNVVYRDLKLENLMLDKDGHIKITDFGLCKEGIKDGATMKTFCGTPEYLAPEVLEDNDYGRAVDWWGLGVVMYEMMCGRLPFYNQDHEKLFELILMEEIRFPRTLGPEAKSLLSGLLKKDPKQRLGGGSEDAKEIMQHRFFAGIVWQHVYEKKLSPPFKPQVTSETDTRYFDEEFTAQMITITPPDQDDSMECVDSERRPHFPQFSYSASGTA

Regarding `Cc1cc(-c2cn(CCNCC3CC3)c(C3CCN(c4ncnc(N)c4C#N)CC3)n2)ccc1F` [Compound 378, 4-Amino-6-{4-[1-[2-(cyclopropylmethyl-amino)-ethyl]-4-(4-fluoro-3-methyl-phenyl)-1H-imidazol-2-yl]-piperidin-1-yl}-pyrimidine-5-carbonitrile], the figures for the half-inhibitory concentration (IC50) on P70S6K (T412E mutant) and at His-AKT (Full Length) were 0.8 nM and 2.3 nM, respectively.
For `CCc1c(N)ncnc1N1CCC(c2nc(-c3cccc(Cl)c3)cn2CCN2CCC2)CC1` [Compound 279] the same measures were 2.4 nM and 16 nM.
As for `CN(CCn1cc(-c2ccc(F)c(C(F)(F)F)c2)nc1C1CCN(c2ncnc(N)c2C(N)=O)CC1)Cc1ccccc1` [Compound 368, 4-Amino-6-{4[1-[2-(benzyl-methyl-amino)-ethyl]-4-(4-fluoro-3-trifluoromethyl-phenyl)-1H-imidazol-2-yl]-piperidin-1-yl}-pyrimidine-5-carboxylic acid amide], the values for the IC50 at P70S6K (T412E mutant) and on His-AKT (Full Length) were 21 nM and 760 nM, respectively.
Regarding `Cc1cc(-c2cn(CC3CNC3)c(C3CCN(c4ncnc(N)c4OC(C)C)CC3)n2)ccc1F` [Compound 187, 6-(4-(1-(azetidin-3-ylmethyl)-4-(4-fluoro-3-methylphenyl)-1H-imidazol-2-yl)piperidin-1-yl)-5-isopropoxypyrimidin-4-amine], the IC50 at P70S6K (T412E mutant) is 3.4 nM; at His-AKT (Full Length), 6.4 nM.
For `N#Cc1c(N)ncnc1N1CCC(c2nc(-c3ccc(F)c(C(F)(F)F)c3)cn2CCN2CCC2)CC1` [Compound 74, 4-Amino-6-{4-[1-(2-azetidin-1-yl-ethyl)-4-(4-fluoro-3-trifluoromethyl-phenyl)-1H-imidazol-2-yl]-piperidin-1-yl}-pyrimidine-5-carbonitrile] the same measures were 1.2 nM and 2.6 nM.
Consider `Cc1cc(-c2cn(CC3CNC3)c(C3CCN(c4ncnc(N)c4C#N)CC3)n2)ccc1F` [Compound 191, 4-amino-6-(4-(1-(azetidin-3-ylmethyl)-4-(4-fluoro-3-methylphenyl)-1H-imidazol-2-yl)piperidin-1-yl)pyrimidine-5-carbonitrile], for which the results for the IC50 at P70S6K (T412E mutant) and at His-AKT (Full Length) were 7.4 nM and 15 nM, respectively.
On to `NC(=O)c1c(N)ncnc1N1CCC(c2nc(-c3cccc(C(F)(F)F)c3)cn2CCN2CCCC2)CC1` [Compound 335], for which the half-maximal inhibitory concentration (IC50) on P70S6K (T412E mutant) came to 13 nM; on His-AKT (Full Length), 92 nM.
In the case of `Cc1cc(-c2cn(CCNC3CCCC3)c(C3CCN(c4ncnc(N)c4C(N)=O)CC3)n2)ccc1F` [Compound 391, 4-Amino-6-{4-[1-(2-cyclopentylamino-ethyl)-4-(4-fluoro-3-methyl-phenyl)-1H-imidazol-2-yl]-piperidin-1-yl}-pyrimidine-5-carboxylic acid amide], the values for the IC50 on P70S6K (T412E mutant) and at His-AKT (Full Length) were 4 nM and 5.6 nM, respectively.
As to `NC(=O)c1c(N)ncnc1N1CCC(c2nc(-c3ccc(F)c(C(F)(F)F)c3)cn2CCN2CCC2)CC1` [Compound 78, 4-Amino-6-{4-[1-(2-azetidin-1-yl-ethyl)-4-(4-fluoro-3-trifluoromethyl-phenyl)-1H-imidazol-2-yl]-piperidin-1-yl}-pyrimidine-5-carboxylic acid amide], the IC50 on P70S6K (T412E mutant) stood at 2 nM; on His-AKT (Full Length), 14 nM.
On to `CCOc1c(N)ncnc1N1CCC(c2nc(-c3ccc(F)c(C(F)(F)F)c3)cn2CCN2CCC2)CC1` [Compound 102, 6-(4-(1-(2-(azetidin-1-yl)ethyl)-4-(4-fluoro-3-(trifluoromethyl)phenyl)-1H-imidazol-2-yl)piperidin-1-yl)-5-ethoxypyrimidin-4-amine], for which the IC50 was 2.4 nM on P70S6K (T412E mutant) and 4.1 nM on His-AKT (Full Length).
For `CCN(CCn1cc(-c2ccc(F)c(C)c2)nc1C1CCN(c2ncnc(N)c2C#N)CC1)C(C)C` [Compound 327] the same measures were 5.2 nM and 2.8 nM.
For `N#Cc1c(N)ncnc1N1CCC(c2nc(-c3ccc(F)c(C(F)(F)F)c3)cn2CCO)CC1` [Compound 357, 4-Amino-6-{4-[4-(4-fluoro-3-trifluoromethyl-phenyl)-1-(2-hydroxy-ethyl)-1H-imidazol-2-yl]-piperidin-1-yl}-pyrimidine-5-carbonitrile] the same measures were 0.8 nM and 130 nM.
Turning to `Nc1ncnc(N2CCC(c3nc(-c4ccc(Cl)c(F)c4)cn3CCN3CCCC3)CC2)c1C1CCC1` [Compound 260], the IC50 came to 21 nM on P70S6K (T412E mutant) and 67 nM at His-AKT (Full Length).
Turning to `CC(C)Oc1c(N)ncnc1N1CCC(c2nc(-c3ccc(F)c(C(F)(F)F)c3)cn2CC2CNC2)CC1` [Compound 175, 6-(4-(1-(azetidin-3-ylmethyl)-4-(4-fluoro-3-(trifluoromethyl)phenyl)-1H-imidazol-2-yl)piperidin-1-yl)-5-isopropoxypyrimidin-4-amine], the values for the IC50 at P70S6K (T412E mutant) and on His-AKT (Full Length) were 5.9 nM and 4.5 nM, respectively.
For the molecule `Nc1ncnc(N2CCC(c3nc(-c4cccc(C(F)(F)F)c4)cn3CCN3CCCC3)CC2)c1Br` [Compound 267], the IC50 on P70S6K (T412E mutant) is 2.2 nM; on His-AKT (Full Length) it was 4.2 nM.
In the case of `CCc1c(N)ncnc1N1CCC(c2nc(-c3ccc(F)c(C(N)=O)c3)cn2CCN2CCC2)CC1` [Compound 106, 5-(2-(1-(6-amino-5-ethylpyrimidin-4-yl)piperidin-4-yl)-1-(2-(azetidin-1-yl)ethyl)-1H-imidazol-4-yl)-2-fluorobenzamide], the half-inhibitory concentration (IC50) is 21 nM at P70S6K (T412E mutant) and 49 nM at His-AKT (Full Length).
Regarding `Nc1ncnc(N2CCC(c3nc(-c4cccc(Cl)c4)cn3CCN3CCCC3)CC2)c1C1CCC1` [Compound 264], the IC50 at P70S6K (T412E mutant) worked out at 4.1 nM; on His-AKT (Full Length), 6.2 nM.
For `NC(=O)c1c(N)ncnc1N1CCC(c2nc(-c3ccc(F)c(C(F)(F)F)c3)cn2CCN2CCCCC2)CC1` [Compound 337] the same measures were 3.5 nM and 11 nM.
For `NC(=O)c1c(N)ncnc1N1CCC(c2nc(-c3cccc(F)c3)cn2CCN2CCCC2)CC1` [Compound 334] the same measures were 26 nM and 620 nM.
For the molecule `CCc1c(N)ncnc1N1CCC(c2nc(-c3ccc(F)c(C(F)(F)F)c3)cn2CCN2CCCC2)CC1` [Compound 208], the values for the IC50 at P70S6K (T412E mutant) and at His-AKT (Full Length) were 3.2 nM and 7.6 nM, respectively.
Take `CCc1c(N)ncnc1N1CCC(c2nc(-c3ccc(F)c(F)c3)cn2CCN2CC3(COC3)C2)CC1` [Compound 198, 6-(4-{4-(3,4-Difluoro-phenyl)-1-[2-(2-oxa-6-aza-spiro[3.3]hept-6-yl)-ethyl]-1H-imidazol-2-yl}-piperidin-1-yl)-5-ethyl-pyrimidin-4-ylamine]: the IC50 at P70S6K (T412E mutant) was determined as 11 nM; at His-AKT (Full Length), 255 nM.
As for `CCc1c(N)ncnc1N1CCC(c2nc(-c3ccc(Cl)cc3)cn2CCN2CCCC2)CC1` [Compound 273], the values for the IC50 on P70S6K (T412E mutant) and at His-AKT (Full Length) were 7.4 nM and 190 nM, respectively.
As for `Cc1cc(-c2cn(CCN(C)C)c(C3CCN(c4ncnc(N)c4-c4cn[nH]c4)CC3)n2)ccc1F` [Compound 163, 6-(4-(1-(2-(dimethylamino)ethyl)-4-(4-fluoro-3-methylphenyl)-1H-imidazol-2-yl)piperidin-1-yl)-5-(1H-pyrazol-4-yl)pyrimidin-4-amine], the IC50 at P70S6K (T412E mutant) came out at 0.73 nM; on His-AKT (Full Length) it was 4.8 nM.
Consider `N#Cc1c(N)ncnc1N1CCC(c2nc(-c3cc[nH]c(=O)c3)cn2CCN2CCC2)CC1` [Compound 315], for which the values for the IC50 on P70S6K (T412E mutant) and at His-AKT (Full Length) were 99 nM and 500 nM, respectively.
Consider `CN(C)CCn1cc(-c2ccc(F)c(C(F)(F)F)c2)nc1C1CCN(c2ncnc(N)c2-c2cnc(N)nc2)CC1` [Compound 71, 6′-{4-[1-(2-Dimethylamino-ethyl)-4-(4-fluoro-3-trifluoromethyl-phenyl)-1H-imidazol-2-yl]-piperidin-1-yl}-[5,5′]bipyrimidinyl-2,4′-diamine], for which the IC50 was 5.6 nM at P70S6K (T412E mutant) and 450 nM on His-AKT (Full Length).
For `CCN(CC)CCn1cc(-c2ccc(F)c(C)c2)nc1C1CCN(c2ncnc(N)c2OC(C)C)CC1` [Compound 304] the same measures were 4.6 nM and 2.6 nM.
For `COC(=O)c1ccc(-c2c(N)ncnc2N2CCC(c3nc(-c4ccc(F)c(C(F)(F)F)c4)cn3CCN(C)C)CC2)cc1` [Compound 88, Methyl 4-(4-amino-6-(4-(1-(2-(dimethylamino)ethyl)-4-(4-fluoro-3-(trifluoromethyl)phenyl)-1H-imidazol-2-yl)piperidin-1-yl)pyrimidin-5-yl)benzoate] the same measures were 8.1 nM and 95 nM.
As to `Nc1ncnc(N2CCC(c3nc(-c4ccc(F)c(C(F)(F)F)c4)cn3C[C@@H]3CCN3)CC2)c1Cl` [Compound 149, (S)-6-(4-(1-(azetidin-2-ylmethyl)-4-(4-fluoro-3-(trifluoromethyl)phenyl)-1H-imidazol-2-yl)piperidin-1-yl)-5-chloropyrimidin-4-amine], the IC50 on P70S6K (T412E mutant) stood at 4.8 nM; at His-AKT (Full Length), 38 nM.
On to `Cc1ccc(-c2c(N)ncnc2N2CCC(c3nc(-c4ccc(F)c(C(F)(F)F)c4)cn3C)CC2)s1` [Compound 20, 6-{4-[4-(4-Fluoro-3-trifluoromethyl-phenyl)-1-methyl-1H-imidazol-2-yl]-piperidin-1-yl}-5-(5-methyl-thiophen-2-yl)-pyrimidin-4-ylamine], for which the IC50 on P70S6K (T412E mutant) came to 7.1 nM; on His-AKT (Full Length), 2700 nM.

Broadly, the IC50 is the concentration that gives 50% inhibition.
